Reference: paper PMC9465178, “Cinnamaldehyde derivatives act as antimicrobial agents against Acinetobacter baumannii through the inhibition of cell division” (Frontiers in Microbiology, 2022)
Values after ≈ are worked out from the molar mass of the structure shown.

Tests used:
Caenorhabditis elegans = experiment: Nematode toxicity (survival); type: in vivo; conditions: 1 × and 2 × MIC, up to 72 h, 25°C
Protocol: Protocols for growing, harvesting, and synchronizing C. elegans have been previously described ([Porta-de-la-Riva et al., 2012]; [Chai et al., 2020]) and were performed with the following modifications. The nematodes were treated with LXC compounds 1 to 6 at 1 × and 2 × MIC with at least 3 replicates using a final DMSO concentration of 2% (v/v). The plate was incubated at 25°C and the number of live vs dead nematodes was enumerated every 24 h for 72 h. […] The percentage of living nematodes at each time point across 72 h was calculated to give the percentage of survival.
FIGURE 10 The LXC compounds (apart from compound 5) were not cytotoxic to C. elegans nematodes. (A–F) C. elegans nematodes were cultured on nematode growth media agar plate and harvested in optimized growth media, with E. coli as its primary source of nutrient. […] The nematodes were counted under a light microscope at 400× magnification and the live nematodes at 72 h was indicated as a fraction of the starting number of nematodes (percentage survival). The results are presented in mean percentage of survival ± SEM. Statistical analysis was performed using two-way ANOVA and the asterisks (*) represent statistical significance: LXC 41 (5) at time 72 h (*p < 0.05).

E. coli ATCC 25922 = system: E. coli ATCC 25922; parameters: method as in Li et al., 2015a,b; conditions: ref Li et al., 2015a,b; cited from earlier work
[1] = system: Pseudomonas aeruginosa ATCC 27853; parameters: method as in Li et al., 2015a,b; conditions: ref Li et al., 2015a,b; cited from earlier work
E. coli FtsZ = conditions: FtsZ from E. coli, 120 μg/mL; ref Li et al., 2015a; cited from earlier work
human red blood cells = experiment: Hemolysis assay; type: cell-based; conditions: fresh human RBCs, 1 h, 37°C, concentrations up to 4 × MIC (concentration in the value words)
Protocol: The hemolysis assay was performed using fresh human red blood cells (RBCs). […] These were performed in quadruplicate. Thereafter, 192 μL RBCs were added into all wells and the plates were incubated at 37°C under constant shaking (100 rpm) for 1 h. RBCs were precipitated by centrifugation of the plates (1,000× g for 3 min). An aliquot (100 μL) of each supernatant was transferred into a new 96-microwell plate and the A450 nm was determined using a PerkinElmer Enspire® plate reader. The fraction of intact RBC for each sample was determined as fraction of the intact RBCs for the sample without the addition of compounds (set at 100%) and plotted as a function of compound concentration.
A 1% (v/v) Triton X-100 was used to indicate complete RBC lysis (^‡). […] The assays were performed in quadruplicates. The plates were incubated at 37°C while constantly shaking at 100 rpm for 1 h. Intact RBCs were removed by centrifugation and the presence of hemolytic products in the supernatant were determined by measuring the absorbance at A450 nm. The results are presented in mean ± SEM. Statistical analysis was performed using one-way ANOVA and the asterisks (*) represent statistical significance (*p < 0.05; **p < 0.005; ***p < 0.0005; ****p < 0.0001).

| Compound | Toxicity toward C. elegans (survival) (Caenorhabditis elegans) | MIC (E. coli ATCC 25922) [µg/mL] | MIC [1] [µg/mL] | Effect on FtsZ polymerization, light scattering (E. coli FtsZ) | Hemolytic activity (human red blood cells) |
| --- | --- | --- | --- | --- | --- |
| Cc1nc2ccccc2n1C(=O)/C=C/c1ccccc1 [Compound 1] | do not have in vivo toxicity in this model at 2 × MICs for up to 72 h | 128 (≈ 488 µM) | 128 (≈ 488 µM) |  |  |
| Cc1nc2ccccc2n1C(=O)/C=C/c1ccc(Cl)cc1Cl [Compound 6] | devoid of hemolytic activity and cytotoxicity against mammalian cells in vitro, as well as adverse activity in a Caenorhabditis elegans nematode model |  |  | impaired polymerization |  |
| Cc1nc2ccccc2n1C(=O)/C=C/c1ccc(F)cc1 [Compound 2] | do not have in vivo toxicity in this model at 2 × MICs for up to 72 h |  |  | impaired polymerization |  |
| Cc1nc2ccccc2n1C(=O)/C=C/c1ccc(Cl)cc1 [Compound 3] | do not have in vivo toxicity in this model at 2 × MICs for up to 72 h |  |  | impaired polymerization |  |
| Cc1nc2ccccc2n1C(=O)/C=C/c1ccc(Br)cc1 [Compound 4] |  |  |  |  | devoid of hemolytic activity even at the highest concentration tested (4 × MIC, Figure 9D) |
| COc1ccc(/C=C/C(=O)n2c(C)nc3ccccc32)cc1OC [Compound 5] | significant toxicity (p < 0.05) but only after 72 h treatment |  |  |  | only non-lytic at a low concentration (0.25 × MIC, Figure 9E) |
